Reference: patent US9782379B2, “Use of protectin DX for the stimulation of muscular IL-6 secretion” (Universite Laval, priority 2013, dated 2017)

What was measured:
C2C12 myotubes = experiment: IL-6 expression and release and AMPK phosphorylation in cultured C2C12 myotubes; assay type: cell-based; conditions: 100 nM of each lipid mediator vs vehicle
Method: C2C12 myoblasts were maintained in DMEM containing 10% FBS. Differentiation to myotubes was initiated by addition of DMEM containing 2% horse serum. The experiment was conducted 5 days after the addition of the differentiation media. Immediately prior to the commencement of experiments fresh media was added to the cells. Then vehicle or PDX (10, 100, and 1000 nM) was added to the appropriate wells. 30 and 120 minutes after the addition of PDX media was collected and frozen for IL-6 quantification and cells were washed in ice cold PBS. For extraction of mRNA cells were then lysed and scraped in 300 μl of RLT buffer (QIAGEN). For examination of AMPK activity cells were lysed and scraped in 200 μl of ice cold lysis buffer containing 50 mM HEPES pH7.5, 150 mM NaCl, 1 mM EGTA, 20 mM b-glycerophosphate, 1% NP40, 10 mM NaF, 2 mM Na3VO4, 1× protease inhibitor cocktail (Sigma).
Snap frozen gastrocnemius muscle and liver from mice were pulverized in liquid nitrogen then lysed overnight at 4° C. in the lysis buffer described for the C2C12 myotube experiments. Immunoblotting of myotube, macrophage, liver and muscle lysates was then performed as previously described^5. Briefly, 50 ug of protein was loaded onto a 7.5% acrylamide gel, subjected to SDS-PAGE then transferred onto nitrocellulose membranes. Membranes were then blocked and probed with the appropriate antibodies. Antibodies for p-Akt ser473, p-JNK thr183/tyr185, JNK, p-AMPK thr172, AMPK, p-STAT-3 ser727 and STAT-3 were obtained from Cell Signaling Technology (MA, USA). Antibodies for total Akt and iNOS were from Santa Cruz Biotechnology (CA, USA) and BD Transduction Laboratories™ (Canada) respectively.
RNA was extracted from C2C12 myotubes using an RNeasy® mini kit from QIAGEN. RNA from homogenized liver tissue was extracted using an RNeasy® fibrous tissue mini kit from QIAGEN. RNA was then reverse transcribed to cDNA using the high-capacity cDNA reverse transcription kit from applied biosystems. Real-time PCR for Ppargc1, Pck1, G6Pc, and GAPDH was then performed using Taqman assay on demand probes and primers from Applied Biosystems in a CFX96 real-time system from BIO-RAD. The relative expression of genes of interest was then determined by normalization to the housekeeping gene GAPDH using the comparative CT method for relative gene expression^30.
Chemokines and cytokines were quantified in macrophage media, or mouse plasma using the MILLIPLEX™ MAP mouse cytokine/chemokine kit (Millipore Corporation, MA, USA). Nitrite accumulation in media was determined by Greiss assay as previously described^25. Plasma insulin levels were assessed by RIA (Linco, MI, USA). FFA were measured using an enzymatic colorimetric assay (Wako Chemicals, VA, USA). Skeletal muscle and liver IL-6 were quantified using the mouse IL-6 ELISA kit from R&D systems. Total plasma adiponectin was determined using the ELISA from ALPCO.

T37i brown adipocytes = experiment: IL-6 release from cultured brown adipocytes; assay type: cell-based; conditions: norepinephrine 1 μM as adrenergic stimulus
Text: Since brown adipose tissue was recently shown to regulate glucose homeostasis via secretion of IL-6^20 we also examined whether PDX might raise circulating IL-6 by stimulating brown fat.

| Structure (SMILES) | IL-6 release from muscle cells (C2C12 myotubes) | release of IL-6 (T37i brown adipocytes) |
| --- | --- | --- |
| CC/C=C\C[C@H](O)\C=C/C=C/C=C/[C@H](O)C/C=C\C/C=C\CCC(=O)O [PD1, 10R,17S-dihydroxy-docosa-4Z,7Z,11E,13E,15Z,19Z-hexaenoic acid, reference compound] | not present |  |
| CCCCCC(O)/C=C/C=C\C=C\[C@@H](O)C/C=C\CCCC(=O)O (stereo partly drawn) [8(S),17(S)DiHETE, 8S,15S-dihydroxy-5Z,9E,11Z,13E-eicosatetraenoic acid, reference compound] | not present |  |
| CC/C=C\CC(O)/C=C/C=C\C=C\C=C\C(O)[C@@H](O)C/C=C\CCC(=O)O (stereo partly drawn) [RvD1, 7S,8R,17S-trihydroxy-4Z,9E,11E,13Z,15E,19Z-docosahexaenoic acid, reference compound] | not present |  |
| NC[C@H](O)c1ccc(O)c(O)c1 [norepinephrine, reference compound] |  | released IL-6 |
